Numbered stars: 1 amine (or outer) side, 2 acyl side, 3 side chain; on linkers, the order of the positions; unused ones are H or OH. Bridge positions count the residues as written; N and C are the ends. Square brackets hold non-standard residues; d marks the D form. Side chains are listed from the residue outwards. Peptide text beside a SMILES is read from it. * marks the point of attachment. C20 diacid = O=C(O)CCCCCCCCCCCCCCCCCCC(=O)*; C18 diacid = O=C(O)CCCCCCCCCCCCCCCCC(=O)*; γGlu = O=C(O)[C@H](CCC(=O)[*:2])N[*:1]; αMeF = C[C@](N)(Cc1ccccc1)C(=O)O; Aib = CC(C)(N)C(=O)O
Key:
[1] = in vivo; settings: male, Sprague-Dawley, rat, 20 nmol/kg
Description: PK studies were performed to determine the half-life (T1/2) of test peptides. T1/2 describes the time taken for the maximum plasma concentration (Cmax) of a test substance to halve its steady-state concentration when in circulation.
Male SD rats were purchased from Si Bei Fu Laboratory Animal Technology Co. Ltd (China). The animals were 6-8 weeks old with body weights of 200-300 g on the dosing date. The animals were housed in a 12-hour light/12-hour dark cycle environment and were fasted overnight before dosing. The body weight of the animals were recorded before dosing, 24 h and 48 h post dosing . Animals had free access to food and drinks, and the food consumption was quantified every day.
Test articles were administered at 20 nmol/kg. Blood samples were collected from each animal via Jugular vein.
The blood samples were transferred into eppendorf low binding tube containing K2 EDTA. Above 0.150 mL blood were collected at each time point. Blood samples were centrifuged at 4,000 g for 5 minutes at 4° C. to obtain plasma. The plasma samples were stored frozen at −75±15° C. until analysis.
Concentrations of the test articles in the plasma samples were analyzed using a LC-MS/MS method. Data acquisition was performed by LabSolution version 5.89 software (Shimadzu, Kyoto, Japan). Data statistics were performed using Excel 97-2003 software. The pharmacokinetic parameters of test articles were calculated using a non-compartmental approach with Phoenix™ VVinNonlin® 6.1.
The following pharmacokinetic parameters were calculated, whenever possible from the plasma concentration versus time data: • IV administration: T1/2, C0, AUClast, AUCinf, MRTinf, Cl, Vss, Number of Points for Regression. • SC administration: Tmax, Cmax, AUClast, AUCinf, MRTinf, F, Number of Points for Regression.

[2] = biological target: T1, human amylin receptor (calcitonin receptor co-expressed with receptor activity modifying protein, RAMP3) (hAMYR3) (Homo sapiens, UniProt O60896+P30988); test: cAMP production in 1321N1 cells with stable recombinant expression of human amylin receptor (hAMYR3); format: cell-based; settings: for Ratio (selectivity hAMYR vs hCTR, ratio of EC50 values at the two receptors): EC50 hCTR / EC50 hAMYR3; for EC50: cAMP, 1321N1 cells, assay buffer with 0.1% BSA, read-out: EC50 (pM) hAMYR3
T1 construct: expressed in transfected cells
T1 sequence (P30988 25-474): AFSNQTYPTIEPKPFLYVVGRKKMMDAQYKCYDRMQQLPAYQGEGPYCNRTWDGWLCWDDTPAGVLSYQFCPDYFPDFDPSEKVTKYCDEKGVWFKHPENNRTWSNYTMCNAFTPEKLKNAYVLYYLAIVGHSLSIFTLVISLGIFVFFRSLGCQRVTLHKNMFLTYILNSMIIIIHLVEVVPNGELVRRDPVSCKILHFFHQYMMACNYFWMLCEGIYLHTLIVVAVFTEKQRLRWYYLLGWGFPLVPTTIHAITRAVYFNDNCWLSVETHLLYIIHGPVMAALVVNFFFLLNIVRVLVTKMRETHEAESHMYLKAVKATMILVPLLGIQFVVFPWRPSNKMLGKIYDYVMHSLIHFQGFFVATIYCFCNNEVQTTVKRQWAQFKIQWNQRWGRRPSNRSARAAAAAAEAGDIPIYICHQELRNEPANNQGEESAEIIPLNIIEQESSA
T1 sequence (O60896 24-148 partner): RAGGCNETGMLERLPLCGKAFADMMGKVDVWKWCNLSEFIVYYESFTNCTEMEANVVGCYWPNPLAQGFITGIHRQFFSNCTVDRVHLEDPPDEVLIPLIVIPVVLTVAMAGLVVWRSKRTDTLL
Procedure, shortened: (§1)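 Thawed cells in HBSS/0.1% BSA/25 mM HEPES pH 7.4 with 0.5 mM IBMX were incubated with peptides 30 min at room temperature; cAMP read by HTRF. EC50 from 4-parameter fit of % activation relative to maximal amylin or calcitonin effect.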

[3] = biological target: T2, rat calcitonin receptor (rat CTR) (Rattus norvegicus, UniProt P32214); test: cAMP production in HEK cells with stable recombinant expression of rat calcitonin receptor (rat CTR); format: cell-based; settings: assay buffer with 0.1% BSA
T2 construct: expressed in transfected cells
T2 sequence (P32214 25-516): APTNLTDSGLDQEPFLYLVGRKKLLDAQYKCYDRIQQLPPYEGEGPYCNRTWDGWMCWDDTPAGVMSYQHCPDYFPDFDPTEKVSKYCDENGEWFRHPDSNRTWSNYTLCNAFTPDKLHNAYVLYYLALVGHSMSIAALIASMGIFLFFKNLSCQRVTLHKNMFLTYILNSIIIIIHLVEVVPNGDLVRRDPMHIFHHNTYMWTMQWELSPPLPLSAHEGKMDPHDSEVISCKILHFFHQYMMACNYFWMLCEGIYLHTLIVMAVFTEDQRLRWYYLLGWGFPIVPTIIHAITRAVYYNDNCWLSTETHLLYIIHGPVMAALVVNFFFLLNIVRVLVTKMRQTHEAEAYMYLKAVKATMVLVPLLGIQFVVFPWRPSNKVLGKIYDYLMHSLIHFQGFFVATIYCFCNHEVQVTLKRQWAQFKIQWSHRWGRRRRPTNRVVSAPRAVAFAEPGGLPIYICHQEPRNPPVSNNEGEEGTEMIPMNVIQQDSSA
Procedure, shortened: as §1

[4] = biological target: T3, human calcitonin receptor (hCTR) (Homo sapiens, UniProt P30988); test: cAMP production in 1321N1 cells with stable recombinant expression of human calcitonin receptor (hCTR); format: cell-based; settings: cAMP, 1321N1 cells, assay buffer with 0.1% BSA; read-out: EC50 (pM) hCTR
T3 construct: expressed in transfected cells
T3 sequence (P30988 25-474): T1 sequence (P30988 25-474)
Procedure, shortened: as §1

Row | half-life ([1]; iv) | half-life ([1]; sc) | Ratio (selectivity hAMYR vs hCTR, ratio of EC50 values at the two receptors) [2] | EC50 [2] | EC50 [3] | EC50 [4] | Structure (SMILES)
1 | 5.9 h | 7.8 h | 42 | 320 pM | 9720 pM | 13500 pM | CC[C@H](C)[C@H](NC(=O)[C@H](C)NC(=O)[C@@H]1CCCN1C(=O)[C@H](Cc1ccccc1)NC(=O)[C@H](CC(N)=O)NC(=O)C(C)(C)NC(=O)[C@H](CO)NC(=O)[C@H](CO)NC(=O)[C@H](Cc1c[nH]cn1)NC(=O)[C@@H](NC(=O)[C@H](CC(C)C)NC(=O)[C@H](Cc1ccccc1)NC(=O)[C@H](CC(N)=O)NC(=O)[C@H](C)NC(=O)[C@H](CC(C)C)NC(=O)[C@H](CCCNC(=N)N)NC(=O)[C@H](CCC(N)=O)NC(=O)[C@@H](NC(=O)[C@H](C)NC(=O)[C@@H]1CSSC[C@H](NC(=O)[C@@H](N)CCCCNC(=O)CC[C@H](NC(=O)CC[C@H](NC(=O)CCCCCCCCCCCCCCCCC(=O)O)C(=O)O)C(=O)O)C(=O)N[C@@H](CC(N)=O)C(=O)N[C@@H]([C@@H](C)O)C(=O)N[C@@H](C)C(=O)N[C@@H]([C@@H](C)O)C(=O)N1)[C@@H](C)O)C(C)C)C(=O)N[C@@H](CC(C)C)C(=O)N[C@@H](CO)C(=O)N1CCC[C@H]1C(=O)N[C@H](C(=O)N[C@@H](CC(N)=O)C(=O)N[C@H](C(=O)NCC(=O)N[C@@H](CO)C(=O)N[C@@H](CC(N)=O)C(=O)N[C@H](C(=O)N[C@@H](Cc1ccc(O)cc1)C(N)=O)[C@@H](C)O)C(C)C)[C@@H](C)O [Peptide 9, K(γE-γE-C18diacid)[CNTATC]ATQRLANFLVHSS(Aib)NFPAILSPTNVGSNTY-amide] (H-K([γGlu-γGlu-C18 diacid])CNTATCATQRLANFLVHSS[Aib]NFPAILSPTNVGSNTY-NH2; disulfide 2-7)
2 | 9.4 h | 10.5 h | 15 | 127 pM | 755 pM | 1860 pM | CC[C@H](C)[C@H](NC(=O)[C@@H]1CCCN1C(=O)CNC(=O)[C@](C)(Cc1ccccc1)NC(=O)[C@H](CC(N)=O)NC(=O)[C@H](CC(N)=O)NC(=O)[C@H](CO)NC(=O)[C@H](CO)NC(=O)[C@H](Cc1c[nH]cn1)NC(=O)[C@@H](NC(=O)[C@H](CC(C)C)NC(=O)[C@H](Cc1ccccc1)NC(=O)[C@H](CC(N)=O)NC(=O)[C@H](C)NC(=O)[C@H](CC(C)C)NC(=O)[C@H](CCCNC(=N)N)NC(=O)[C@H](CCC(N)=O)NC(=O)[C@@H](NC(=O)[C@H](C)NC(=O)[C@@H]1CSSC[C@H](NC(=O)[C@@H](N)CCCCNC(=O)CC[C@H](NC(=O)CC[C@H](NC(=O)CCCCCCCCCCCCCCCCC(=O)O)C(=O)O)C(=O)O)C(=O)N[C@@H](CC(N)=O)C(=O)N[C@@H]([C@@H](C)O)C(=O)N[C@@H](C)C(=O)N[C@@H]([C@@H](C)O)C(=O)N1)[C@@H](C)O)C(C)C)C(=O)N[C@@H](CC(C)C)C(=O)N1CCC[C@H]1C(=O)N1CCC[C@H]1C(=O)N[C@H](C(=O)N[C@@H](CCCNC(=N)N)C(=O)N[C@H](C(=O)NCC(=O)N[C@@H](CO)C(=O)N[C@@H](CC(N)=O)C(=O)N[C@H](C(=O)N[C@@H](Cc1ccc(O)cc1)C(N)=O)[C@@H](C)O)C(C)C)[C@@H](C)O [Peptide 24, K(γE-γE-C18diacid)[CNTATC]ATQRLANFLVHSSNN(αMePhe)GPILPPTRVGSNTY-amide] (H-K([γGlu-γGlu-C18 diacid])CNTATCATQRLANFLVHSSNN[αMeF]GPILPPTRVGSNTY-NH2; disulfide 2-7; N-terminus assumed)
3 | 7.4 h | 8.1 h | 15 | 228 pM | 782 pM | 3330 pM | CC[C@H](C)[C@H](NC(=O)[C@@H]1CCCN1C(=O)CNC(=O)[C@H](Cc1ccccc1)NC(=O)[C@H](CC(N)=O)NC(=O)C(C)(C)NC(=O)[C@H](CO)NC(=O)[C@H](CO)NC(=O)[C@H](Cc1c[nH]cn1)NC(=O)[C@@H](NC(=O)[C@H](CC(C)C)NC(=O)[C@H](Cc1ccccc1)NC(=O)[C@H](CC(N)=O)NC(=O)[C@H](C)NC(=O)[C@H](CC(C)C)NC(=O)[C@H](CCCNC(=N)N)NC(=O)[C@H](CCC(N)=O)NC(=O)[C@@H](NC(=O)[C@H](C)NC(=O)[C@@H]1CSSC[C@H](NC(=O)[C@H](CCCCN)NC(=O)[C@@H](N)CCCCNC(=O)CC[C@H](NC(=O)CCCCCCCCCCCCCCCCC(=O)O)C(=O)O)C(=O)N[C@@H](CC(N)=O)C(=O)N[C@@H]([C@@H](C)O)C(=O)N[C@@H](C)C(=O)N[C@@H]([C@@H](C)O)C(=O)N1)[C@@H](C)O)C(C)C)C(=O)N[C@@H](CC(C)C)C(=O)N1CCC[C@H]1C(=O)N1CCC[C@H]1C(=O)N[C@H](C(=O)N[C@@H](Cc1c[nH]cn1)C(=O)N[C@H](C(=O)NCC(=O)N[C@@H](CO)C(=O)N[C@@H](CC(N)=O)C(=O)N[C@H](C(=O)N[C@@H](Cc1ccc(O)cc1)C(N)=O)[C@@H](C)O)C(C)C)[C@@H](C)O [Peptide 40, K(γE-C18diacid)K[CNTATC]ATQRLANFLVHSS(Aib)NFGPILPPTHVGSNTY-amide] (H-K([γGlu-C18 diacid])KCNTATCATQRLANFLVHSS[Aib]NFGPILPPTHVGSNTY-NH2; disulfide 3-8)
4 | 11.8 h | 19 h | 2 | 861 pM | 258 pM | 1340 pM | CC[C@H](C)[C@H](NC(=O)[C@@H]1CCCN1C(=O)CNC(=O)[C@H](Cc1ccccc1)NC(=O)[C@H](CC(N)=O)NC(=O)[C@H](CC(N)=O)NC(=O)[C@H](CO)NC(=O)[C@H](CO)NC(=O)[C@H](Cc1c[nH]cn1)NC(=O)[C@@H](NC(=O)[C@H](CC(C)C)NC(=O)[C@H](Cc1ccccc1)NC(=O)[C@H](CC(N)=O)NC(=O)[C@H](C)NC(=O)[C@H](CC(C)C)NC(=O)[C@H](CCCNC(=N)N)NC(=O)[C@H](CCC(N)=O)NC(=O)[C@@H](NC(=O)[C@H](C)NC(=O)[C@@H]1CSSC[C@H](NC(=O)[C@H](CCCCN)NC(=O)CC[C@H](NC(=O)CCCCCCCCCCCCCCCCCCC(=O)O)C(=O)O)C(=O)N[C@@H](CC(N)=O)C(=O)N[C@@H]([C@@H](C)O)C(=O)N[C@@H](C)C(=O)N[C@@H]([C@@H](C)O)C(=O)N1)[C@@H](C)O)C(C)C)C(=O)N[C@@H](CC(C)C)C(=O)N1CCC[C@H]1C(=O)N1CCC[C@H]1C(=O)N[C@H](C(=O)N[C@@H](CC(N)=O)C(=O)N[C@H](C(=O)NCC(=O)N[C@@H](CO)C(=O)N[C@@H](CC(N)=O)C(=O)N[C@H](C(=O)N[C@@H](Cc1ccc(O)cc1)C(N)=O)[C@@H](C)O)C(C)C)[C@@H](C)O [Peptide 112] ({C20 diacid-γGlu}-KCNTATCATQRLANFLVHSSNNFGPILPPTNVGSNTY-NH2; disulfide 2-7)

Reference: US20240067693A1, “POLYPEPTIDES AND USES THEREOF” (MEDIMMUNE LIMITED, priority 2020, published 2024)
